The text below walks through data of ChEMBL document CHEMBL1156596, “Overcoming undesirable CYP1A2 inhibition of pyridylnaphthalene-type aldosterone synthase inhibitors: influence of heteroaryl derivatization on potency and selectivity” (J Med Chem, 2008).

One series is filed under the species Homo sapiens. The series is described as follows: Selectivity ratio of IC50 for human CYP11B1 to IC50 for human CYP11B2.
The target of another series is T1, CYP1A2 (Homo sapiens, UniProt P05177).
T1 sequence (P05177 whole entry): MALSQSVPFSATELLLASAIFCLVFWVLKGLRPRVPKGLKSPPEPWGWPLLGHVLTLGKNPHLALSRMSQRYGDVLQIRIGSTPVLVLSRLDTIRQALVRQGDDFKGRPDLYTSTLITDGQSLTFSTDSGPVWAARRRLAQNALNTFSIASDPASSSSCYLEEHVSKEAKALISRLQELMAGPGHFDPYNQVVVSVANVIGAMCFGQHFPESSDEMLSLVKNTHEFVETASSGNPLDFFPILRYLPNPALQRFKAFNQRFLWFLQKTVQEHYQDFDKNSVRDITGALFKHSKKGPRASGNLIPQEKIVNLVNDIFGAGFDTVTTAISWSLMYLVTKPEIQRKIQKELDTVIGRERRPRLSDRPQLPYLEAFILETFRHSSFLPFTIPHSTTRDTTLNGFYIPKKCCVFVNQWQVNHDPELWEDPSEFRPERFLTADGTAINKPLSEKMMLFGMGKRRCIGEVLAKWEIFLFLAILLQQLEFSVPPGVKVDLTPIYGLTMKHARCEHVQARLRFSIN
The series is described as follows: Inhibition of human recombinant CYP1A2 expressed in insect microsomes at 2 uM. The format is ADME, Microsome.

For a further series, the target named is T2, Cytochrome P450 2B6 (Homo sapiens, UniProt P20813).
T2 sequence (P20813 whole entry): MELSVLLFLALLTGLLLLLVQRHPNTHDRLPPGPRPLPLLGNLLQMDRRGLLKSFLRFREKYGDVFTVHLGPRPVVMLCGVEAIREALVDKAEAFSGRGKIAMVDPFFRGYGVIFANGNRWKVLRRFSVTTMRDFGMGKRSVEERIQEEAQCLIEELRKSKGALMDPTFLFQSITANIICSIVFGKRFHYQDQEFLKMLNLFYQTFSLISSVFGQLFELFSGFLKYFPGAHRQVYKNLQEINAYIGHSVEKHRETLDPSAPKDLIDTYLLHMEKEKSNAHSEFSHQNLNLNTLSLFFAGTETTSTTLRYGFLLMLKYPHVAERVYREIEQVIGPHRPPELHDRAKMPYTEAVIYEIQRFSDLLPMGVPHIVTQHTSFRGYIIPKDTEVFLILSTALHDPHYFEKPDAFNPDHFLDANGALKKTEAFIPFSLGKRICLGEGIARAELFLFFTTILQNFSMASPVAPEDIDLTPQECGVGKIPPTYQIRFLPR
The series is described as follows: Inhibition of human recombinant CYP2B6 expressed in insect microsomes. The class given is ADME, Microsome.

Another series has as its target Cytochrome P450 2C9 (Homo sapiens, UniProt P11712). The series is described as follows: Inhibition of human recombinant CYP2C9 expressed in insect microsomes. The format is ADME, Microsome.
A further series deals with Cytochrome P450 2D6 (Homo sapiens, UniProt P10635). In words: Inhibition of human recombinant CYP2D6 expressed in insect microsomes. The format is ADME, Microsome.
Chain of Cytochrome P450 2D6 (P10635 whole entry): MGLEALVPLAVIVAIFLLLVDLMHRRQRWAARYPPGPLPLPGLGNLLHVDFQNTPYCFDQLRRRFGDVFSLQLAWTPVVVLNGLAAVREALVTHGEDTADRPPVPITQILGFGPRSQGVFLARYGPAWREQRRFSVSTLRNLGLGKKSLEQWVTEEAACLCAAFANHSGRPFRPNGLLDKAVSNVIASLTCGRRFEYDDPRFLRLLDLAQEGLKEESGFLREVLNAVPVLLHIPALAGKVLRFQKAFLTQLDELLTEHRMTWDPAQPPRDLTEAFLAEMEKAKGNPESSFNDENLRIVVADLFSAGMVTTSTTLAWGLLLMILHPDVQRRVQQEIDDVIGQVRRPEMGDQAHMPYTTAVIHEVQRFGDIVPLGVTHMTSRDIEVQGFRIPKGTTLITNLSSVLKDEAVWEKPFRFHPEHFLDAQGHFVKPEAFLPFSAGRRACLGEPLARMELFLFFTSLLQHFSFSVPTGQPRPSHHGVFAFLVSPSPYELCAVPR
Another series deals with Cytochrome P450 3A4 (Homo sapiens, UniProt P08684). The series is described as follows: Inhibition of human recombinant CYP3A4 expressed in insect microsomes. The class given is ADME, Microsome.
Chain of Cytochrome P450 3A4 (P08684 whole entry): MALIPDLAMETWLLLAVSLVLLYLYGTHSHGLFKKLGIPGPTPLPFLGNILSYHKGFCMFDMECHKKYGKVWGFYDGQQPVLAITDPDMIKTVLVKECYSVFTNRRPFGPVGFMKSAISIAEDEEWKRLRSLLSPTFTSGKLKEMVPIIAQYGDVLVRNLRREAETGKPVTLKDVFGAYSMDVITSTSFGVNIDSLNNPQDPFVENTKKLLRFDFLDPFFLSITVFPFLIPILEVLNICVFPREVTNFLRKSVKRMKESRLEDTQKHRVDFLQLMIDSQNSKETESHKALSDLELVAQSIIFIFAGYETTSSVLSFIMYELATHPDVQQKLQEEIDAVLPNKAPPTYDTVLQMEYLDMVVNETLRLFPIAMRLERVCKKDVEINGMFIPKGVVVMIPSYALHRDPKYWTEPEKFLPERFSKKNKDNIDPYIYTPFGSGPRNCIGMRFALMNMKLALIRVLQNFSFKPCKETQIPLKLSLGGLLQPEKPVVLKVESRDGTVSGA
Series [1] is described as follows: Terminal half life in Wistar rat at 5 mg/kg, po. The format is ADME, organism-based. Also on record: dose 5 mg/kg, route oral. The following applies: in vivo.
Series [2] in a line: Plasma concentration in Wistar rat plasma at 5 mg/kg, po after 1 hr. The arrangement: dose 5 mg/kg, route oral. The format is ADME, organism-based.
Series [3] is described as follows: Plasma concentration in Wistar rat plasma at 5 mg/kg, po after 2 hrs. The class given is ADME, organism-based. Also on record: dose 5 mg/kg, route oral.
The nature of series [4]: Plasma concentration in Wistar rat plasma at 5 mg/kg, po after 8 hrs. The format is ADME, organism-based. The arrangement: dose 5 mg/kg, route oral.
Series [5] in a line: Plasma concentration in Wistar rat plasma at 5 mg/kg, po after 24 hrs. The class given is ADME, organism-based. The arrangement: dose 5 mg/kg, route oral.
Series [6] is described as follows: Tmax in Wistar rat at 5 mg/kg, po. The class given is ADME, organism-based. The arrangement: dose 5 mg/kg, route oral. The following applies: in vivo.
Series [7] addresses T3, Cytochrome P450 11B2, mitochondrial (Homo sapiens, UniProt P19099).
T3 sequence (P19099 whole entry): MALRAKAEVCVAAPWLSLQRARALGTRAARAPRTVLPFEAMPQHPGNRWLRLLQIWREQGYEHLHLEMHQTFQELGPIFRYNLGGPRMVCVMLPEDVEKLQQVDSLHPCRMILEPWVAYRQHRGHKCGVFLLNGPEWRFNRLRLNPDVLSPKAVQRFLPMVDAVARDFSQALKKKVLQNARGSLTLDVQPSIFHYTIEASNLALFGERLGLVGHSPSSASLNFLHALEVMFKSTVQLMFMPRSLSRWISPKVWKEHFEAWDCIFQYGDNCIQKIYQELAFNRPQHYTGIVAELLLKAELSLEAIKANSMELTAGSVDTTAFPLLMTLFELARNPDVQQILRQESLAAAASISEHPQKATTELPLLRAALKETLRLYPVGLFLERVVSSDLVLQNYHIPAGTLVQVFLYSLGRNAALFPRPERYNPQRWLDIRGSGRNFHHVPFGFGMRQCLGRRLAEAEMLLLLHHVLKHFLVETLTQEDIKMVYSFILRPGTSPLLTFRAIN

The target of series [8] is T4, Cytochrome P450 11B1, mitochondrial (Homo sapiens, UniProt P15538).
T4 sequence (P15538 whole entry): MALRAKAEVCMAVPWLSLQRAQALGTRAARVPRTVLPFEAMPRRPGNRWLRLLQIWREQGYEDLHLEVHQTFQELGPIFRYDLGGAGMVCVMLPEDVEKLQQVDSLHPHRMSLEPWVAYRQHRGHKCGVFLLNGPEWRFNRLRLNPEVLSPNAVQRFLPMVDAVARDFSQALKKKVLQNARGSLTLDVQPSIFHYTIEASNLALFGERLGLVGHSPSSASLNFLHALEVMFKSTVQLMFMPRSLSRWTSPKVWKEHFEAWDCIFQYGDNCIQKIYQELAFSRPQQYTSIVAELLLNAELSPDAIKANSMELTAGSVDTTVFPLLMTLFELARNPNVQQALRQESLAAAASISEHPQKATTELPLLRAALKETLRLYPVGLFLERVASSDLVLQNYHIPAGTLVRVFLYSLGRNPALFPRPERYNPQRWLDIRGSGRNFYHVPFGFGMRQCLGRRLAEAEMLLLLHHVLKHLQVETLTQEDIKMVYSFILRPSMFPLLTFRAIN

For the next series, the target named is T5, Cytochrome P450 1A2 (Homo sapiens, UniProt P05177).
T5 sequence (P05177 whole entry): T1 sequence (P05177 whole entry)

Another series in a line: in vivo. The following applies: Wistar, rat, plasma, po, 5 mg/kg.

Chain of Cytochrome P450 2C9 (P11712 whole entry): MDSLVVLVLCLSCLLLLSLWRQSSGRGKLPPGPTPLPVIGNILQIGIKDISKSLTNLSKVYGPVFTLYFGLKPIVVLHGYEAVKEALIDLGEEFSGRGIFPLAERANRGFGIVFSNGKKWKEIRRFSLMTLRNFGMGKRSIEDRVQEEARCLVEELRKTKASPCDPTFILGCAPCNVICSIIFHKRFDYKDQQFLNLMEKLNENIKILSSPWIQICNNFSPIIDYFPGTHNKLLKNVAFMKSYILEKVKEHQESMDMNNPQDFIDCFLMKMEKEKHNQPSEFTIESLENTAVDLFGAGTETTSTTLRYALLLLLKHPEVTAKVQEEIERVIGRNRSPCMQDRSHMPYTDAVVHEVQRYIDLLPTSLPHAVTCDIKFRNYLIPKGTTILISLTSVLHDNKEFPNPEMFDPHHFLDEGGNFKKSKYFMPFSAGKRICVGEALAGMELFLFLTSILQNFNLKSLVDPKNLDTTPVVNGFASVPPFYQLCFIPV

In the case of `COc1ccc2cc(-c3cncc4ccccc34)ccc2c1`, in the series listed under Homo sapiens, the Ratio IC50 amounted to 112. Moreover, the inhibition at 2 µM at CYP1A2 amounted to 57%. The IC50 on Cytochrome P450 2B6 stood at 16500 nM; at Cytochrome P450 2C9, 1270 nM; on Cytochrome P450 2D6 it was 33100 nM; at Cytochrome P450 3A4, 3540 nM; in [7] it was 0.6 nM; in [8], 67 nM. Moreover, half-maximal inhibition against Cytochrome P450 1A2 (IC50) required 1620 nM. The same compound gave a half-life in [1] of 3.2 h. In addition, in series [2], the concentration at 1 h was determined as 34.9 ng/mL. In series [3], this compound yielded a concentration at 2 h of 55.8 ng/mL. The same compound yielded a concentration at 8 h in series [4] of 34.6 ng/mL. In [5], the concentration at 24 h is 1.28 ng/mL. Moreover, in series [6], the Tmax was found to be 6 h. The AUC(0-inf) in “in vivo” came out at 762 ng·h/mL.

One may read the inhibition as the relative decrease from the control value, in per cent. Broadly, the IC50 is the concentration that inhibits the measured activity by half. For orientation: half-life means the time in which the quantity being followed falls by half. For orientation: Tmax means the time from dosing to the highest level. Broadly, the AUC(0-inf) is total exposure, with the tail of the curve extrapolated. Higher therefore signals high exposure.
